In the supplement of paper PMC10307832:

Legend:
Test in all cases: relative viability (nuclei count vs DMSO), 5 days (fraction); higher = more cells survive
Ricolinostat + Foretinib = compound: O=C(CCCCCCNC(=O)c1cnc(N(c2ccccc2)c2ccccc2)nc1)NO [Ricolinostat] + COc1cc2c(Oc3ccc(NC(=O)C4(C(=O)Nc5ccc(F)cc5)CC4)cc3F)ccnc2cc1OCCCN1CCOCC1 [Foretinib] (partner 0.25 µM)
Summary of the method: (§1)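 Lung cancer cell lines were seeded in 1536-well plates and dosed by pin tool the next day, with either a single drug or a fixed anchor-drug dose combined with five library-drug doses (not always all listed) spaced in √10 steps. Five days later, one step fixed the cells and stained their nuclei (final 0.05% Triton X-100, 1% formaldehyde, 1 ug/ml Hoechst), and nuclei were counted on 4× images. Relative viability is the nuclei count in treated wells divided by the count in vehicle wells, and each value is the median of duplicate plates.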

[1] = compound: C1=CC=C(C(=C1)C2=CC=C(C=C2)C3=CSC4=C3C(=C(C(=O)N4)C#N)O)O + C[C@]1(O)C[C@@H](c2nc(-c3ccc4ccc(-c5ccccc5)nc4c3)c3c(N)nccn32)C1 [Linsitinib] (partner 1 µM)
Summary of the method: as §1

Ricolinostat + Alpelisib = compound: O=C(CCCCCCNC(=O)c1cnc(N(c2ccccc2)c2ccccc2)nc1)NO [Ricolinostat] + Cc1nc(NC(=O)N2CCC[C@H]2C(N)=O)sc1-c1ccnc(C(C)(C)C(F)(F)F)c1 [Alpelisib] (partner 2 µM)
Summary of the method: as §1

TGX 221 + Navitoclax = compound: CC1=CN2C(=O)C=C(N=C2C(=C1)C(C)NC3=CC=CC=C3)N4CCOCC4 [TGX 221] + CC1(C)CCC(c2ccc(Cl)cc2)=C(CN2CCN(c3ccc(C(=O)NS(=O)(=O)c4ccc(N[C@H](CCN5CCOCC5)CSc5ccccc5)c(S(=O)(=O)C(F)(F)F)c4)cc3)CC2)C1 [Navitoclax] (partner 0.5 µM)
Summary of the method: as §1

Cell Line	relative viability (Ricolinostat + Foretinib; first compound 0.08 µM)	relative viability (Ricolinostat + Foretinib; first compound 0.253 µM)	relative viability (Ricolinostat + Foretinib; first compound 0.8 µM)	relative viability (Ricolinostat + Foretinib; first compound 2.53 µM)	relative viability ([1]; first compound 0.08 µM)	relative viability ([1]; first compound 0.253 µM)	relative viability ([1]; first compound 0.8 µM)	relative viability ([1]; first compound 2.53 µM)	relative viability ([1]; first compound 8 µM)	relative viability (Ricolinostat + Alpelisib; first compound 0.08 µM)	relative viability (Ricolinostat + Alpelisib; first compound 0.253 µM)	relative viability (Ricolinostat + Alpelisib; first compound 0.8 µM)	relative viability (Ricolinostat + Alpelisib; first compound 2.53 µM)	relative viability (TGX 221 + Navitoclax; first compound 0.08 µM)	relative viability (TGX 221 + Navitoclax; first compound 0.253 µM)	relative viability (TGX 221 + Navitoclax; first compound 0.8 µM)	relative viability (TGX 221 + Navitoclax; first compound 2.53 µM)	relative viability (TGX 221 + Navitoclax; first compound 8 µM)
NCI-H2342	0.88	0.975	1.19	1.07	–	–	–	–	–	–	–	–	–	–	–	–	–	–
SK-LU-1	0.739	0.908	0.772	0.722	1.31	1.11	1.16	1.19	1.15	0.947	0.914	0.84	0.708	0.392	0.84	0.726	0.786	0.772
NCI-H2023	–	0.799	0.786	0.742	0.671	0.713	0.591	0.605	0.592	0.503	0.581	0.614	0.499	0.987	0.965	0.988	0.925	0.758
NCI-H1299	1.05	1.07	1.07	1.06	0.848	1	0.852	1.01	0.912	1.06	0.99	0.988	0.944	1.01	1.03	1.04	1.07	0.985
LOU-NH91	0.742	0.904	0.97	0.918	0.903	1.06	0.878	0.911	0.89	–	0.735	0.709	0.699	0.705	0.647	0.707	0.681	0.544
LCLC-103H	0.688	0.798	0.787	0.748	1.11	1.22	0.984	1.08	0.869	0.814	0.971	0.883	0.959	–	–	–	–	–
SW 1573	0.863	1.12	0.899	0.918	0.812	0.875	0.951	0.834	0.721	0.506	0.862	0.751	0.832	0.814	0.811	0.926	0.821	0.753
NCI-H1755	0.853	0.925	0.903	0.91	0.934	1.17	0.889	1.19	0.97	0.771	–	0.92	0.902	0.948	0.949	0.891	0.606	0.444
COR-L 105	–	0.874	0.917	1.16	0.964	0.781	0.924	0.957	0.953	0.698	0.98	0.934	1.25	0.97	0.613	0.842	0.799	0.558
NCI-H1793	–	0.737	0.741	0.876	0.679	1.12	0.747	0.856	0.508	–	0.633	0.698	0.755	0.405	0.328	0.286	0.283	0.176
EMC-BAC-2	0.905	1.03	0.942	0.851	0.759	0.853	0.837	0.811	0.77	0.644	0.669	0.768	0.816	1.16	1.1	1.13	1.11	1.05
H3255	0.626	0.962	0.685	0.589	0.912	1.06	0.854	0.967	0.78	0.517	0.651	0.678	0.661	0.486	0.49	0.515	0.553	0.601
PC-14	0.954	0.898	0.892	0.828	0.93	1.12	0.978	1.09	0.745	0.821	0.903	0.917	0.66	0.951	1	0.961	1.01	0.926
NCI-H661	0.849	0.983	1	0.81	0.589	0.607	0.561	0.487	0.471	–	0.597	0.642	0.844	–	–	–	–	–
HARA	0.968	0.901	0.767	0.646	–	1.68	0.998	1.07	0.774	0.545	0.79	0.693	0.618	1.18	1.13	1.03	1.13	1.11
COR-L23	0.973	0.965	0.87	0.653	0.703	0.816	1.02	0.99	0.747	0.651	0.689	0.571	0.407	1.01	1.02	0.963	0.954	0.997
SK-MES-1	0.782	0.946	0.928	0.917	1.18	1.17	0.952	1.03	0.987	0.541	0.761	0.805	0.591	1.17	1.05	1.13	1.05	0.996
NCI-H1395	–	0.954	1.07	1.06	–	1.89	1.13	1.03	1.38	–	1.12	1.13	1.26	1.02	0.907	0.986	0.957	0.763

Cell Line	relative viability (Ricolinostat + Foretinib; first compound 0.08 µM)	relative viability (Ricolinostat + Foretinib; first compound 0.253 µM)	relative viability (Ricolinostat + Foretinib; first compound 0.8 µM)	relative viability (Ricolinostat + Foretinib; first compound 2.53 µM)	relative viability ([1]; first compound 0.08 µM)	relative viability ([1]; first compound 0.253 µM)	relative viability ([1]; first compound 0.8 µM)	relative viability ([1]; first compound 2.53 µM)	relative viability ([1]; first compound 8 µM)	relative viability (Ricolinostat + Alpelisib; first compound 0.08 µM)	relative viability (Ricolinostat + Alpelisib; first compound 0.253 µM)	relative viability (Ricolinostat + Alpelisib; first compound 0.8 µM)	relative viability (Ricolinostat + Alpelisib; first compound 2.53 µM)	relative viability (TGX 221 + Navitoclax; first compound 0.08 µM)	relative viability (TGX 221 + Navitoclax; first compound 0.253 µM)	relative viability (TGX 221 + Navitoclax; first compound 0.8 µM)	relative viability (TGX 221 + Navitoclax; first compound 2.53 µM)	relative viability (TGX 221 + Navitoclax; first compound 8 µM)
NCI-H2170	0.915	0.973	0.983	1.01	–	–	–	–	–	0.687	0.764	0.862	0.934	0.572	0.64	0.594	0.541	0.51
NCI-H647	1	1	1.01	1.02	1.17	1.1	1.21	1.17	1.08	1.16	1.09	1.15	0.937	1.08	0.781	0.943	0.88	0.622
CAL-12T	1.04	1.17	1.12	1.35	0.636	1.12	0.762	0.907	0.787	1.1	0.998	1.15	0.912	1.06	1.2	1.36	1.23	1.07
201T	–	1.09	1.14	1.08	1.09	1.06	1.03	1.02	1.1	0.905	0.946	1.03	0.887	–	1.26	1.21	1.19	1.15
HCC-366	0.915	0.837	0.975	0.817	0.819	0.786	0.795	0.657	0.451	0.223	0.407	0.398	0.433	1.03	0.927	0.916	1.07	0.914
NCI-H1944	0.828	0.835	0.689	0.641	1.19	1.18	1.09	1.14	1.19	0.649	0.783	0.74	0.58	0.981	1.02	1	0.943	0.841
NCI-H1651	0.852	0.812	0.746	0.776	0.807	0.9	1.02	0.868	0.788	0.885	0.997	0.917	0.884	0.977	0.964	0.948	0.734	0.733
LCLC-97TM1	0.953	0.89	1	0.933	0.197	0.203	0.222	0.198	0.164	0.177	0.288	0.188	0.306	0.389	0.264	0.42	0.464	0.481
NCI-H1650	1.17	1.05	0.886	0.635	–	–	–	–	–	–	–	–	–	1.23	1.14	1.27	1.04	0.456
NCI-H650	0.957	0.997	0.872	0.8	0.857	0.817	0.737	0.914	0.716	–	1.18	0.922	0.877	–	–	–	–	–
SW 900	0.733	0.883	0.886	0.989	–	–	–	–	–	–	–	–	–	–	–	–	–	–
NCI-H358	0.594	0.636	0.631	0.503	0.868	0.742	0.69	0.914	0.595	0.733	0.997	0.952	1.05	–	–	–	–	–
HCC-44	–	–	–	–	0.587	0.84	0.66	0.715	0.58	0.694	0.743	0.725	0.612	0.992	0.981	0.918	0.837	0.732
NCI-H1563	0.89	0.874	0.844	0.793	1.16	1.06	1.11	1.23	1.31	0.916	0.994	0.862	0.857	–	–	–	–	–
NCI-H1623	0.795	0.9	0.825	0.739	–	–	–	–	–	–	–	–	–	–	–	–	–	–
ABC-1	0.88	0.901	1.11	0.912	0.926	0.906	0.856	0.875	0.735	0.955	0.933	1.11	0.648	–	–	–	–	–
ChaGo-K-1	0.895	0.912	0.861	0.86	–	–	–	–	–	–	–	–	–	0.957	1.02	0.987	0.737	1.36
